pIC50: −log10 of the molar value. Numbered stars: 1 amine (or outer) side, 2 acyl side, 3 side chain; on linkers, the order of the positions; unused ones are H or OH. Bridge positions count the residues as written; N and C are the ends. Square brackets hold non-standard residues; d marks the D form. Peptide text beside a SMILES is read from it. * marks the point of attachment. Pro(5R-Ph) = O=C(O)[C@@H]1CC[C@H](c2ccccc2)N1; Benzoyl(4-CF3) = O=C(c1ccc(C(F)(F)F)cc1)*; Benzoyl(4-Ph) = O=C(c1ccc(-c2ccccc2)cc1)*; N(CH2CH2COOH)Gly = O=C(O)CCNCC(=O)O; dBta = N[C@H](Cc1csc2ccccc12)C(=O)O; Cyclohexylacetyl = O=C(CC1CCCCC1)*; X2 = O=C(C1(N[*:1])CCC(O)CC1)[*:2]; 2Naphthoyl = O=C(c1ccc2ccccc2c1)*; NMeR = CN[C@@H](CCCNC(=N)N)C(=O)O; dCit = NC(=O)NCCC[C@@H](N)C(=O)O; hArg = N=C(N)NCCCC[C@H](N)C(=O)O; NMeD = CN[C@@H](CC(=O)O)C(=O)O; dTle = CC(C)(C)[C@@H](N)C(=O)O; Carboxymethyl = O=C(O)C*; Isobutyryl = CC(C)C(=O)*; Pentanoyl = CCCCC(=O)*; X3 = Cc1nc(C(=O)*)cs1; βAla = NCCC(=O)O; Sar = CNCC(=O)O
Target: αvβ3 integrin (Homo sapiens, UniProt P05106+P06756)
Assay: Inhibition of biotinylated LXW7 binding to αvβ3-K562 cells (flow cytometry)
Design: expressed in transfected cells; host or cells: K562 (gift of Dr. Yoshikazu Takada, UC Davis)
Conditions: LXW9-92: inhibiting the binding of biotinylated LXW7 against αvβ3-K562 cells
Description: The apparent IC50 were calculated using Graph Prism software (≦www.graphpad.com≧).
The samples were analyzed with Coulter XL-MCL flow cytometry. The histogram and mean fluorescence intensity (MFI) were determined. The apparent Kd, IC50 were calculated using Graph Prism software (≦www.graphpad.com≧).

αvβ3 integrin, sequence (P06756 31-889 limits assumed): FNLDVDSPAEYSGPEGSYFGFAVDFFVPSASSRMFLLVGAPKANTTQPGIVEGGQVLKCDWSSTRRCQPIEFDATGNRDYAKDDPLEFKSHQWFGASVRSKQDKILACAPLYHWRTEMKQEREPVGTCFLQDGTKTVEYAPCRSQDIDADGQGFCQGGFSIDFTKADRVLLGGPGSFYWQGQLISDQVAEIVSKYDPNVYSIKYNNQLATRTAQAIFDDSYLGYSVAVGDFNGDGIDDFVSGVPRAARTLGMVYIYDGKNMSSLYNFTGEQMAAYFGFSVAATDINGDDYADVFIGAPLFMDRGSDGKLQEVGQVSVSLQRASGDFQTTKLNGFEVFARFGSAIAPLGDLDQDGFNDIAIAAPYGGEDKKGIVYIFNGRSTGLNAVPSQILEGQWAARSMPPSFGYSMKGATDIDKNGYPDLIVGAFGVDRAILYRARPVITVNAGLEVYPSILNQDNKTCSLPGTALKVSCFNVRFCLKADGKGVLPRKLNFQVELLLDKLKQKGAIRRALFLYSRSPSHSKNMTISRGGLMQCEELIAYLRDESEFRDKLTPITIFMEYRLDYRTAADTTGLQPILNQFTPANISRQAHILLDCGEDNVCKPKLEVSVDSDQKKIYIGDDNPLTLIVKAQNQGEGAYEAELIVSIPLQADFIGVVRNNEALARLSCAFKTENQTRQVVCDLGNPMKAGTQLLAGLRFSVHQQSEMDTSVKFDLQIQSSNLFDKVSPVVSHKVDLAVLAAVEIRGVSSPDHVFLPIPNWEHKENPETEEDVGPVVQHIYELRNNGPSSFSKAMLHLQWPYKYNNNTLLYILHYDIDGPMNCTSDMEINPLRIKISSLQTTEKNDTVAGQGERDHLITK
αvβ3 integrin, sequence (P06756 891-1048 partner limits assumed): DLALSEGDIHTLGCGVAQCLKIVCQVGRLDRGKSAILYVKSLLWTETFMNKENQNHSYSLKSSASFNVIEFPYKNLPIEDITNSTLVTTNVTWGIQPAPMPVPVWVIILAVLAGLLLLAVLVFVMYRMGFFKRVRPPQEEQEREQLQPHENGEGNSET
αvβ3 integrin, sequence (P05106 27-788): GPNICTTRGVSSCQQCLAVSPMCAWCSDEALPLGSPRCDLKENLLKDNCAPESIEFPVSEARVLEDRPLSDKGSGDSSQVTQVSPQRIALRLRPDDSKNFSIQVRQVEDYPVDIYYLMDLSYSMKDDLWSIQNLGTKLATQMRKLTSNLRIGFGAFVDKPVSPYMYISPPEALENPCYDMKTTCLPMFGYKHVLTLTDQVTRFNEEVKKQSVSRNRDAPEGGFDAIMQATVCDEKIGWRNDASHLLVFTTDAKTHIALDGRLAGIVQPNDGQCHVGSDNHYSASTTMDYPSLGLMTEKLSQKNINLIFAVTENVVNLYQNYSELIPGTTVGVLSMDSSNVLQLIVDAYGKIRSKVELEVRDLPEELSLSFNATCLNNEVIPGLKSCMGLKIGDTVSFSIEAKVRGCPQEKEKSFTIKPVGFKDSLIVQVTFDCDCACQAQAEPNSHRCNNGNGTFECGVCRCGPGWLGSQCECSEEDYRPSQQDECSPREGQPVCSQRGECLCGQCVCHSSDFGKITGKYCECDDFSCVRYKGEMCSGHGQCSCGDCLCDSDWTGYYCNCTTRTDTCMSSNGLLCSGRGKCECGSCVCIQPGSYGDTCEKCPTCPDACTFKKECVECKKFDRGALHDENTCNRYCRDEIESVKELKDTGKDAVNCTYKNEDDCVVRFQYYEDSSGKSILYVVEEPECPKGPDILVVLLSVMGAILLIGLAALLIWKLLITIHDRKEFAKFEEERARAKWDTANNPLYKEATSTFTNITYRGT

## N=C(N)NCCC[C@@H]1NC(=O)CNC(=O)[C@H](N)CSSC[C@@H](C(N)=O)NC(=O)C2(CCOCC2)NC(=O)[C@@H](CC(=O)O)NC(=O)[C@H](CC(=O)O)NC(=O)CNC1=O [LXW41, cGRGDd-Actp-C]
LXW7 as internal reference
  pIC50: < 4.70

## N=C(N)NCCC[C@@H]1NC(=O)CNC(=O)[C@@H](N)CSSC[C@H](C(N)=O)NC(=O)[C@@H]2CC[C@H](c3ccccc3)N2C(=O)CN(CCC(=O)O)C(=O)[C@H](CC(=O)O)NC(=O)CNC1=O [LXW46, CGRGD-Nglu-Ppca-c] (H-CGRGD[N(CH2CH2COOH)Gly][Pro(5R-Ph)][dC]-NH2; disulfide 1-8)
LXW7 as internal reference
  pIC50: < 4.70

## N=C(N)NCCC[C@@H]1NC(=O)CNC(=O)[C@H](N)CSSC[C@H](C(N)=O)NC(=O)[C@@H](Cc2cscn2)NC(=O)[C@@H](CC(=O)O)NC(=O)[C@H](CC(=O)O)NC(=O)CNC1=O [LXW69, cGRGDd-DTha-c]
Class symbols
  pIC50: 5.00 to 6.00

## N=C(N)NCCC[C@@H]1NC(=O)CNC(=O)[C@H](N)CSSC[C@H](C(N)=O)NC(=O)[C@@H](Cc2ccsc2)NC(=O)[C@@H](CC(=O)O)NC(=O)[C@H](CC(=O)O)NC(=O)CNC1=O [LXW66, cGRGDd-D3Thi-c]
Class symbols
  pIC50: > 6.00

## CC(C)[C@H]1NC(=O)[C@@H](CC(=O)O)NC(=O)[C@H](CC(=O)O)NC(=O)CNC(=O)[C@H](CCCNC(=N)N)NC(=O)CN(C)C(=O)[C@H](N)CSSC[C@H](C(N)=O)NC1=O [LXW14, c-Sar-RGDdvc] (H-[dC][Sar]RGD[dD][dV][dC]-NH2; disulfide 1-8)
Class symbols
  pIC50: 5.00 to 6.00

## CC[C@@H](C)[C@H]1NC(=O)C2(CCC(O)CC2)NC(=O)[C@H](CC(=O)O)NC(=O)CNC(=O)[C@H](CCCNC(=N)N)NC(=O)CN(C)C(=O)[C@H](N)CSSC[C@@H](C(N)=O)NC1=O (stereo partly drawn) [LXW42, c-Sar-RGD-Ahch-iC] (H-[dC][Sar]RGD[X2][dI]C-NH2; disulfide 1-8)
LXW7 as internal reference
  pIC50: < 4.70

## CC(C)[C@H]1NC(=O)[C@@H](CC(=O)O)NC(=O)[C@H](CC(=O)O)NC(=O)CNC(=O)[C@H](CCCNC(=N)N)NC(=O)CNC(=O)[C@H](NC(=O)c2ccc3ccccc3c2)CSSC[C@H](C(N)=O)NC1=O [LXW89, 2-naphthoyl-cGRGDdvc] (2Naphthoyl-[dC]GRGD[dD][dV][dC]-NH2; disulfide 1-8)
Class symbols
  pIC50: > 6.00

## CC(C)[C@H]1NC(=O)[C@@H](CC(=O)O)NC(=O)[C@H](CC(=O)O)NC(=O)CNC(=O)[C@H](CCCCNC(=N)N)NC(=O)CNC(=O)[C@H](N)CSSC[C@H](C(N)=O)NC1=O [LXW51, cG-HoArg-GDdvc] (H-[dC]G[hArg]GD[dD][dV][dC]-NH2; disulfide 1-8)
LXW7 as internal reference
  pIC50: < 4.70

## N=C(N)NCCC[C@@H]1NC(=O)CNC(=O)[C@@H](N)CSSC[C@@H](C(N)=O)NC(=O)[C@@H](Cc2cscn2)NC(=O)[C@@H](CC(=O)O)NC(=O)[C@H](CC(=O)O)NC(=O)CNC1=O [LXW39, CGRGDd-DTha-C]
Class symbols
  pIC50: < 5.00

## CC(C)[C@@H]1C(=O)N[C@@H](C(N)=O)CSSC[C@@H](N)C(=O)NCC(=O)N[C@@H](CCCNC(=N)N)C(=O)NCC(=O)N[C@@H](CC(=O)O)C(=O)N[C@H](CC(=O)O)C(=O)N1C [LXW22, cGRGDd-D(NMe)Val-c]
Class symbols
  pIC50: > 6.00

## N=C(N)NCCC[C@@H]1NC(=O)CNC(=O)[C@H](N)CSSC[C@H](C(N)=O)NC(=O)[C@@H](Cc2ccc3ccccc3c2)NC(=O)[C@@H](CC(=O)O)NC(=O)[C@H](CC(=O)O)NC(=O)CNC1=O [LXW65, cGRGDd-DNal2-c]
Class symbols
  pIC50: > 6.00

## Cc1nc(C(=O)N[C@@H]2CSSC[C@H](C(N)=O)NC(=O)[C@@H](C(C)C)NC(=O)[C@@H](CC(=O)O)NC(=O)[C@H](CC(=O)O)NC(=O)CNC(=O)[C@H](CCCNC(=N)N)NC(=O)CNC2=O)cs1 [LXW86, 2-Methylthiazole-4-carbonyl-cGRGDdvc] (X3-[dC]GRGD[dD][dV][dC]-NH2; disulfide 1-8)
Class symbols
  pIC50: > 6.00

## CC(C)[C@H]1NC(=O)[C@@H](CC(=O)O)NC(=O)[C@H](CC(=O)O)NC(=O)CNC(=O)[C@H](CCCNC(=N)N)NC(=O)CNC(=O)[C@H](NC(=O)c2ccc(C(F)(F)F)cc2)CSSC[C@H](C(N)=O)NC1=O [LXW85, 4-(trifluoromethyl)benzoyl-cGRGDdvc] ({Benzoyl(4-CF3)}-[dC]GRGD[dD][dV][dC]-NH2; disulfide 1-8)
Class symbols
  pIC50: > 6.00

## CC(C)[C@H]1NC(=O)[C@@H](CC(=O)O)NC(=O)[C@H](CC(=O)O)NC(=O)CNC(=O)[C@H](CCCNC(=N)N)NC(=O)CNC(=O)[C@H](NC(=O)CC2CCCCC2)CSSC[C@H](C(N)=O)NC1=O [LXW78, cyclohexyl acetyl-cGRGDdvc] (Cyclohexylacetyl-[dC]GRGD[dD][dV][dC]-NH2; disulfide 1-8)
Class symbols
  pIC50: 5.00 to 6.00

## N=C(N)NCCC[C@@H]1NC(=O)CNC(=O)[C@H](N)CSSC[C@H](C(N)=O)NC(=O)[C@@H](Cc2csc3ccccc23)NC(=O)[C@@H](CC(=O)O)NC(=O)[C@H](CC(=O)O)NC(=O)CNC1=O [LXW48, cGRGDd-DBta-c]
Class symbols
  pIC50: > 6.00

## C#CC[C@H]1NC(=O)[C@@H](CC(=O)O)NC(=O)[C@H](CC(=O)O)NC(=O)CNC(=O)[C@H](CCCNC(=N)N)NC(=O)CN(C)C(=O)[C@H](N)CSSC[C@@H](C(N)=O)NC1=O [LXW37, c-Sar-RGDd-DPra-C]
Class symbols
  pIC50: < 5.00

## N=C(N)NCCC[C@@H]1NC(=O)CNC(=O)[C@H](N)CSSC[C@H](C(N)=O)NC(=O)[C@@H](Cc2csc3ccccc23)NC(=O)[C@@H](CCCNC(N)=O)NC(=O)[C@H](CC(=O)O)NC(=O)CNC1=O [LXW73, cGRGD-DCit-DBta-c] (H-[dC]GRGD[dCit][dBta][dC]-NH2; disulfide 1-8)
Class symbols
  pIC50: 5.00 to 6.00

## CC(C)[C@H]1NC(=O)[C@@H](CC(=O)O)NC(=O)[C@H](CC(=O)O)N(C)C(=O)CNC(=O)[C@H](CCCNC(=N)N)NC(=O)CNC(=O)[C@H](N)CSSC[C@H](C(N)=O)NC1=O [LXW55, cGRG-(NMe)Asp-dvc] (H-[dC]GRG[NMeD][dD][dV][dC]-NH2; disulfide 1-8)
LXW7 as internal reference
  pIC50: < 4.70

## CC(C)[C@H]1NC(=O)[C@@H](CC(=O)O)NC(=O)[C@H](CC(=O)O)NC(=O)CNC(=O)[C@H](CCCNC(=N)N)NC(=O)CNC(=O)[C@H](NC(=O)CCN)CSSC[C@H](C(N)=O)NC1=O [LXW56, 3-amino propanoyl-cGRGDdvc] (H-[βAla][dC]GRGD[dD][dV][dC]-NH2; disulfide 2-9)
Class symbols
  pIC50: > 6.00

## CC(C)[C@H]1NC(=O)[C@@H](CC(=O)O)NC(=O)[C@H](CC(=O)O)NC(=O)CNC(=O)[C@H](CCCNC(=N)N)N(C)C(=O)CNC(=O)[C@H](N)CSSC[C@H](C(N)=O)NC1=O [LXW53, cG-(NMe)Arg-GDdvc] (H-[dC]G[NMeR]GD[dD][dV][dC]-NH2; disulfide 1-8)
Class symbols
  pIC50: > 6.00

## N=C(N)NCCC[C@@H]1NC(=O)CNC(=O)[C@@H](N)CSSC[C@@H](C(N)=O)NC(=O)[C@@H](Cc2cccc3ccccc23)NC(=O)[C@@H](CC(=O)O)NC(=O)[C@H](CC(=O)O)NC(=O)CNC1=O [LXW47, CGRGDd-DNal1-C]
Class symbols
  pIC50: 5.00 to 6.00

## N=C(N)NCCC[C@@H]1NC(=O)CNC(=O)[C@H](N)CSSC[C@H](C(N)=O)NC(=O)[C@@H]2CC[C@H](c3ccccc3)N2C(=O)[C@@H](CCCNC(N)=O)NC(=O)[C@H](CC(=O)O)NC(=O)CNC1=O [LXW70, cGRGD-DCit-Ppca-c] (H-[dC]GRGD[dCit][Pro(5R-Ph)][dC]-NH2; disulfide 1-8)
Class symbols
  pIC50: < 5.00

## CN1CC(=O)N[C@@H](CCCNC(=N)N)C(=O)NCC(=O)N[C@@H](CC(=O)O)C(=O)N[C@@H](Cc2ccc(OCC(=O)O)cc2)C(=O)N[C@H](CC(=O)O)C(=O)N[C@H](C(N)=O)CSSC[C@H](N)C1=O [LXW44, C-Sar-RGD-Bmp-dC] (H-C[Sar]RGDY(Carboxymethyl)[dD]C-NH2; disulfide 1-8)
LXW7 as internal reference
  pIC50: < 4.70

## N=C(N)NCCC[C@@H]1NC(=O)CNC(=O)[C@H](N)CSSC[C@@H](C(N)=O)NC(=O)[C@@H](CC(=O)O)NC(=O)[C@@H](CO)NC(=O)[C@H](CC(=O)O)NC(=O)CNC1=O [LXW62, cGRGDsdC] (H-[dC]GRGD[dS][dD]C-NH2; disulfide 1-8)
Class symbols
  pIC50: < 5.00

## CC(C)[C@H]1NC(=O)[C@@H](CC(=O)O)NC(=O)[C@H](CC(=O)O)NC(=O)CNC(=O)[C@H](CCCNC(=N)N)NC(=O)CNC(=O)[C@H](NC(=O)c2ccc(-c3ccccc3)cc2)CSSC[C@H](C(N)=O)NC1=O [LXW84, biphenyl-4-carbonyl-cGRGDdvc] ({Benzoyl(4-Ph)}-[dC]GRGD[dD][dV][dC]-NH2; disulfide 1-8)
Class symbols
  pIC50: > 6.00

## CC(C)[C@@]1(C)NC(=O)[C@@H](CC(=O)O)NC(=O)[C@H](CC(=O)O)NC(=O)CNC(=O)[C@H](CCCNC(=N)N)NC(=O)CNC(=O)[C@H](N)CSSC[C@H](C(N)=O)NC1=O [LXW23, cGRGDd-D(CaMe)Val-c]
Class symbols
  pIC50: < 5.00

## CCCCC(=O)N[C@@H]1CSSC[C@H](C(N)=O)NC(=O)[C@@H](C(C)C)NC(=O)[C@@H](CC(=O)O)NC(=O)[C@H](CC(=O)O)NC(=O)CNC(=O)[C@H](CCCNC(=N)N)NC(=O)CNC1=O [LXW77, valeryl-cGRGDdvc] (Pentanoyl-[dC]GRGD[dD][dV][dC]-NH2; disulfide 1-8)
Class symbols
  pIC50: 5.00 to 6.00

## CC(C)C(=O)N[C@@H]1CSSC[C@H](C(N)=O)NC(=O)[C@@H](C(C)C)NC(=O)[C@@H](CC(=O)O)NC(=O)[C@H](CC(=O)O)NC(=O)CNC(=O)[C@H](CCCNC(=N)N)NC(=O)CNC1=O [LXW76, isobutyryl-cGRGDdvc] (Isobutyryl-[dC]GRGD[dD][dV][dC]-NH2; disulfide 1-8)
Class symbols
  pIC50: > 6.00

## N=C(N)NCCC[C@@H]1NC(=O)CNC(=O)[C@H](N)CSSC[C@H](C(N)=O)NC(=O)[C@@H](Cc2cccc3ccccc23)NC(=O)[C@@H](CC(=O)O)NC(=O)[C@H](CC(=O)O)NC(=O)CNC1=O [LXW64, cGRGDd-DNal1-c]
Class symbols
  pIC50: > 6.00

## CN1CC(=O)N[C@@H](CCCNC(=N)N)C(=O)NCC(=O)N[C@@H](CC(=O)O)C(=O)NC2(CCC(O)CC2)C(=O)N[C@H](C(C)(C)C)C(=O)N[C@@H](C(N)=O)CSSC[C@@H](N)C1=O (stereo partly drawn) [LXW33, c-Sar-RGD-Ahch-DBug-c] (H-[dC][Sar]RGD[X2][dTle][dC]-NH2; disulfide 1-8)
LXW7 as internal reference
  pIC50: < 4.70
